The structures appear in SMILES notation.

T1 sequence (P05771 1-673 isoform P05771-2): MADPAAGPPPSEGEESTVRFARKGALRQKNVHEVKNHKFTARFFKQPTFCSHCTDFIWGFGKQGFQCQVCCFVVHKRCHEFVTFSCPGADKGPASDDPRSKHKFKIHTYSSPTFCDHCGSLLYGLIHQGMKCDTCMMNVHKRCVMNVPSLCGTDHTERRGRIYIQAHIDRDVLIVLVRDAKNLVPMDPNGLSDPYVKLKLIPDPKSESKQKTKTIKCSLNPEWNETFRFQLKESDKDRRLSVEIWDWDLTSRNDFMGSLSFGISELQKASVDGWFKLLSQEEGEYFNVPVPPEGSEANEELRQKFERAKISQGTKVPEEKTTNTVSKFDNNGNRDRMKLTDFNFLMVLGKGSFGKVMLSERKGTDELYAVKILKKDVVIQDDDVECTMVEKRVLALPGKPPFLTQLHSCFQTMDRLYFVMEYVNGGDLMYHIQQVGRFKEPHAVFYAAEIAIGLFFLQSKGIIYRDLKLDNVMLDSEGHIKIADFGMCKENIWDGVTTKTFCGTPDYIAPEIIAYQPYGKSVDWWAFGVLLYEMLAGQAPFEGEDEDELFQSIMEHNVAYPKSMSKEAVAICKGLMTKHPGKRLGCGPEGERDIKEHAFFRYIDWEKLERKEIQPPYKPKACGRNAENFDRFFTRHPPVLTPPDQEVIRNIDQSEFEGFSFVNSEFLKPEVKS

The experiment addresses T1, human full-length recombinant PKC βII (Homo sapiens, UniProt P05771).
T1 construct: Active human full-length recombinant PKC βII; purchased Invitrogen GmbH, Darmstadt, Germany
As to the kind of experiment: Determination of PKC βII inhibition (Caliper mobility-shift kinase assay, Fluorescein-RFARKGSLRQKNV peptide substrate). It counts as biochemical. The conditions noted are these: example compounds at a final concentration of 1.14 μM (±0.15 μM). The gist of the method: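 Compounds were tested at 1.14 μM final. Enzyme was activated by PS, DAG and CaCl2 in Hepes pH 7.4 with MgCl2, with substrate 3 μM and ATP 120 μM as pre-mix concentrations. After 60 min at 32 °C and an EDTA stop, Caliper separation gave fractional turnover, which was normalised to no-compound and no-enzyme controls.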
As a reminder, the inhibition is the percentage by which the read-out fell short of the control. For `Cc1n[nH]c2nc(-c3ccc(O)cc3)cc(C(=O)N3CC[C@@H](N(C)C)C3)c12` [Example 238, ((R)-3-Dimethylamino-pyrrolidin-1-yl)-[6-(4-hydroxy-phenyl)-3-methyl-1H-pyrazolo[3,4-b]pyridin-4-yl]-methanone], the inhibition at 1.14 µM turned out to be 77%.
The same measure for `COC(=O)[C@H]1CN(C(=O)c2cc(-c3ccc(O)c(F)c3)nc3[nH]nc(C)c23)CCN1` [Example 297, (R)-4-[6-(3-Fluoro-4-hydroxy-phenyl)-3-methyl-1H-pyrazolo[3,4-b]pyridine-4-carbonyl]-piperazine-2-carboxylic acid methyl ester]: 34%; for `Cc1n[nH]c2nc(-c3ccc(O)cc3)cc(C(=O)N3CCNCC3c3ccc(Cl)cc3)c12` (centres unmarked) [Example 378, [2-(4-Chloro-phenyl)-piperazin-1-yl]-[6-(4-hydroxy-phenyl)-3-methyl-1H-pyrazolo[3,4-b]pyridin-4-yl]-methanone]: 87%; for `CCC1(C)CNC(C)(C)CN1C(=O)c1cc(-c2ccc(O)cc2F)nc2[nH]nc(C)c12` (centres unmarked) [Example 449, (2-Ethyl-2,5,5-trimethyl-piperazin-1-yl)-[6-(2-fluoro-4-hydroxy-phenyl)-3-methyl-1H-pyrazolo[3,4-b]pyridin-4-yl]-methanone]: 99%.
`Cc1cc(O)ccc1-c1cc(C(=O)N2CCNCC2C(F)(F)F)c2c(C)n[nH]c2n1` (centres unmarked) [Example 144, [6-(4-Hydroxy-2-methyl-phenyl)-3-methyl-1H-pyrazolo[3,4-b]pyridin-4-yl]-(2-trifluoromethyl-piperazin-1-yl)-methanone]: the inhibition at 1.14 µM came out at 82%.
Consider `Cc1cc(O)ccc1-c1cc(C(=O)N2CCNCC2c2cc(F)cc(F)c2)c2c(C)n[nH]c2n1` (centres unmarked) [Example 136, [2-(3,5-Difluoro-phenyl)-piperazin-1-yl]-[6-(4-hydroxy-2-methyl-phenyl)-3-methyl-1H-pyrazolo[3,4-b]pyridin-4-yl]-methanone], for which the inhibition at 1.14 µM was 100%.
As for `Cc1n[nH]c2nc(-c3ccc(O)cc3)cc(C(=O)NC3CCC(N(C)C)CC3)c12` (centres unmarked) [Example 396, 6-(4-Hydroxy-phenyl)-3-methyl-1H-pyrazolo[3,4-b]pyridine-4-carboxylic acid (4-dimethylamino-cyclohexyl)-amide], the figure is 39%; as for `Cc1n[nH]c2nc(-c3ccc(O)cc3)cc(C(=O)NC3CCNCC3)c12` [Example 74, 6-(4-Hydroxy-phenyl)-3-methyl-1H-pyrazolo[3,4-b]pyridine-4-carboxylic acid piperidin-4-ylamide], 47%.
As for `Cc1n[nH]c2nc(-c3ccc(O)cc3)cc(C(=O)N3CC4CCC3CN4)c12` (centres unmarked) [Example 71, 2,5-Diaza-bicyclo[2.2.2]oct-2-yl-[6-(4-hydroxy-phenyl)-3-methyl-1H-pyrazolo[3,4-b]pyridin-4-yl]-methanone], the figure is 95%.
Take `Cc1n[nH]c2nc(-c3ccc(O)cc3)cc(C(=O)N3CCC4CNCC43)c12` (centres unmarked) [Example 226, (Hexahydro-pyrrolo[3,4-b]pyrrol-1-yl)-[6-(4-hydroxy-phenyl)-3-methyl-1H-pyrazolo[3,4-b]pyridin-4-yl]-methanone]: the inhibition at 1.14 µM was determined as 95%.
As for `COC(=O)[C@H]1CN(C(=O)c2cc(-c3ccc(O)cc3)nc3[nH]nc(C)c23)CCN1` [Example 211, (R)-4-[6-(4-Hydroxy-phenyl)-3-methyl-1H-pyrazolo[3,4-b]pyridine-4-carbonyl]-piperazine-2-carboxylic acid methyl ester], the figure is 64%; as for `NC1CCN(C(=O)c2cc(-c3ccc(O)cc3)nc3[nH]nc(C(F)(F)F)c23)CC1` [Example 399, (4-Amino-piperidin-1-yl)-[6-(4-hydroxy-phenyl)-3-trifluoromethyl-1H-pyrazolo[3,4-b]pyridin-4-yl]-methanone], 60%; as for `CCc1n[nH]c2nc(-c3ccc(O)cc3)cc(C(=O)NC3CCCN(CC)C3)c12` (centres unmarked) [Example 175, 3-Ethyl-6-(4-hydroxy-phenyl)-1H-pyrazolo[3,4-b]pyridine-4-carboxylic acid (1-ethyl-piperidin-3-yl)-amide], 46%.
Consider `Cc1n[nH]c2nc(-c3ccc(O)cc3)cc(C(=O)NCC(C)N3CCCC3)c12` (centres unmarked) [Example 389, 6-(4-Hydroxy-phenyl)-3-methyl-1H-pyrazolo[3,4-b]pyridine-4-carboxylic acid (2-pyrrolidin-1-yl-propyl)-amide], for which the inhibition at 1.14 µM turned out to be 65%.
